Paper PMC11008251, “Distribution of 2,2′,5,5′-Tetrachlorobiphenyl (PCB52) Metabolites in Adolescent Rats after Acute Nose-Only Inhalation Exposure” (Environmental Science & Technology, 2024)
Where two headings read alike, the source gives them in different places.

Assays:
[1] = PCB52 and monohydroxylated metabolite tissue levels by GC-MS/MS after 4 h nose-only inhalation; format: in vivo, Sprague–Dawley rats; conditions: for concentration at 4 h: Sprague-Dawley, rat, inhaled, mean
Method: PCB52 vapor for the animal exposure was generated using a published protocol.[12] Briefly, 450 g of 3 mm diameter glass beads were added to a solution of 1.5 g of PCB52 in dichloromethane. The glass beads were then coated with PCB52 by evaporating dichloromethane in a water bath at 29 °C using a rotary evaporator (Buchi Rotavapor R-200, New Castle, DE) under reduced pressure. For the animal exposures, high-efficiency particulate air (HEPA)-filtered laboratory air was passed through the PCB52-coated glass beads at a flow rate of 12 L/min to expose animals to PCB52 vapor in a nose-only exposure apparatus (Figure 1A). The flask of PCB52-coated beads and mixing chamber were kept at 25.0 °C using a precision water bath to facilitate the volatilization of PCB52. The PCB52-laden air was passed through a mixing chamber and distributed to the nose-only inhalation apparatus at a flow rate of 4 L/min per tower (n = 3) and a sampling cartridge filled with 10 g of Amberlite XAD-2 polymeric absorbent resin (Sigma-Aldrich, St. Louis, MO) at a flow rate of 2 L/min. The specified flow rates were generated using flow meter-regulated pumps. The XAD-2 cartridge was used to capture PCB52 vapor to characterize the exposure atmosphere. A sham exposure group was exposed in parallel to HEPA-filtered clean air in an identical nose-only exposure system in an adjacent lab with no supplied PCB52.
The Institutional Animal Care and Use Committee of the University of Iowa approved all of the animal protocols. Animals were housed in a temperature- and humidity-controlled room (21 °C, 55% relative humidity) with a 12 h light/dark cycle in an Association for the Assessment and Accreditation of Laboratory Animal Care (AAALAC) accredited animal facility. Animals were provided with food (sterile Teklad 5% stock diet, Harlan, Madison, WI) and water ad libitum throughout the study. Thirty-six male and female Sprague–Dawley rats (7 weeks of age; Charles River, Wilmington, MA) were allowed to acclimate to the animal facility for 8 days after arrival. Prior to exposure, rats (227 ± 27 and 197 ± 13 g, male and female, respectively) were randomly assigned to the exposure groups (n = 6 per group) using a random number generated (Excel, version 2307). Animals were simultaneously exposed for 4 h to a low or high concentration of PCB52-laden per sex) or filtered lab air (Figure 1A). Exposure duration was limited to 4 h along with scheduled training days (30 min at 55 days of age and 2 h at 56 days of age) to acclimate animals and minimize stress. […] Animal exposure occurred for 4 h at 57 days of age. Rats are considered adolescents at this age.[38] Serum was collected immediately after the animals were removed from the nose-only apparatus by cardiac puncture under isoflurane anesthesia. Rats were perfused with saline, and organs were excised and stored at −80 °C. Body and organ weights, including brain, lungs, and thymus, were not altered by PCB52 inhalation regardless of sex or exposure (Tables S2 and S3).
PCB52 and its hydroxylated metabolites were extracted from tissues, serum, and cecum and intestinal content using a published protocol;[40],[41] see the Supporting Information. Briefly, PCB52 and its metabolites were extracted from homogenates by liquid–liquid extraction and cleaned by solid-phase extraction with acidified silica gel. PCB52 and metabolites were quantified in the multiple reaction monitoring setting (MRM) on an Agilent 7890 A GC system equipped with an Agilent 7000 Triple Quad and Agilent 7693 autosampler (Agilent Technologies, Santa Clara, CA); see the Supporting Information.
PCB52 and metabolite levels, adjusted for tissue wet weight, are reported as the mean ± standard deviation. Differences in PCB52 and metabolite levels from the GC-MS/MS analysis were analyzed with the Tobit regression model because some measurements are below the detection limit. […]

[2] = LC-HRMS analysis of PCB52 metabolites in tissues after 4 h nose-only inhalation; format: in vivo, Sprague–Dawley rats
Method: The Institutional Animal Care and Use Committee of the University of Iowa approved all of the animal protocols. Animals were housed in a temperature- and humidity-controlled room (21 °C, 55% relative humidity) with a 12 h light/dark cycle in an Association for the Assessment and Accreditation of Laboratory Animal Care (AAALAC) accredited animal facility. Animals were provided with food (sterile Teklad 5% stock diet, Harlan, Madison, WI) and water ad libitum throughout the study. Thirty-six male and female Sprague–Dawley rats (7 weeks of age; Charles River, Wilmington, MA) were allowed to acclimate to the animal facility for 8 days after arrival. Prior to exposure, rats (227 ± 27 and 197 ± 13 g, male and female, respectively) were randomly assigned to the exposure groups (n = 6 per group) using a random number generated (Excel, version 2307). Animals were simultaneously exposed for 4 h to a low or high concentration of PCB52-laden per sex) or filtered lab air (Figure 1A). Exposure duration was limited to 4 h along with scheduled training days (30 min at 55 days of age and 2 h at 56 days of age) to acclimate animals and minimize stress. […]
Tissues (brain, cecum and intestinal content, liver, lung, and serum) were homogenized and extracted for LC-HRMS analysis following a published approach; see the Supporting Information.[19] Extracts were analyzed at the High-Resolution Mass Spectrometry Facility at the University of Iowa on a Q-Exactive Orbitrap mass spectrometer (Thermo Fisher Scientific, Waltham, MA, U.S.A.) with an Axquity UPLC-C18 column (particle size: […], 2.1 × 100 mm, Waters, Milford, MA, U.S.A.); see the Supporting Information. […]
All analyses were conducted by using validated standard operating procedures. […] X1-OH-PCB52 estimated concentrations were calculated based on the relative response factor of 4-OH-PCB52. The precision and recoveries of the analyses were further assessed by measuring the recovery of PCB52 and 4-OH-PCB52 from spiked sample blanks and matched blank tissue matrices (Table S6). […]
were extracted and analyzed in parallel. […]

Q: Which concentration at 4 h ([1]; female, adipose, female, high dose, read-out: PCB or metabolite detected level, Adipose) does the source give for `Clc1ccc(Cl)c(-c2cc(Cl)ccc2Cl)c1` [PCB52, 2,2′,5,5′-tetrachlorobiphenyl] here?
A: The concentration at 4 h was 6 ng/g.

Q: And the concentration at 4 h ([1]; female, adipose, female, low dose, read-out: PCB or metabolite detected level, Adipose)?
A: Its concentration at 4 h is 6 ng/g.

Q: And the concentration at 4 h ([1]; female, brain, female, high dose, read-out: PCB or metabolite detected level, Brain)?
A: The concentration at 4 h was 2 ng/g.

Q: What about the concentration at 4 h ([1]; female, brain, female, low dose, read-out: PCB or metabolite detected level, Brain) of the same compound?
A: The concentration at 4 h was 2 ng/g.

Q: What about the concentration at 4 h ([1]; female, cecum, female, high dose, read-out: PCB or metabolite detected level, Cecum) of the same compound?
A: The concentration at 4 h was 1 ng/g.

Q: And the concentration at 4 h ([1]; female, cecum, female, low dose, read-out: PCB or metabolite detected level, Cecum)?
A: Its concentration at 4 h is 1 ng/g.

Q: What about the concentration at 4 h ([1]; female, intestinal content, female, high dose, read-out: PCB or metabolite detected level, Intestinal content) of the same compound?
A: The concentration at 4 h was 2 ng/g.

Q: And the concentration at 4 h ([1]; female, intestinal content, female, low dose, read-out: PCB or metabolite detected level, Intestinal content)?
A: Its concentration at 4 h is 5 ng/g.

Q: And the concentration at 4 h ([1]; female, liver, female, high dose, read-out: PCB or metabolite detected level, Liver)?
A: Its concentration at 4 h is 7 ng/g.

Q: What about the concentration at 4 h ([1]; female, liver, female, low dose, read-out: PCB or metabolite detected level, Liver) of the same compound?
A: Its concentration at 4 h is 7 ng/g.

Q: And the concentration at 4 h ([1]; female, lung, female, high dose, read-out: PCB or metabolite detected level, Lung)?
A: Its concentration at 4 h is 45 ng/g.

Q: What about the concentration at 4 h ([1]; female, lung, female, low dose, read-out: PCB or metabolite detected level, Lung) of the same compound?
A: Its concentration at 4 h is 41 ng/g.

Q: And the concentration at 4 h ([1]; female, serum, female, high dose, read-out: PCB or metabolite detected level, Serum)?
A: Its concentration at 4 h is 1 ng/g.

Q: And the concentration at 4 h ([1]; female, serum, female, low dose, read-out: PCB or metabolite detected level, Serum)?
A: Its concentration at 4 h is 1 ng/g.

Q: And the “general trend of decreasing tissue concentration” value ([1]; irrespective of sex or dose, GC-MS/MS)?
A: Its value is “lung > liver > adipose > brain ≈ intestinal content ≈ cecum ≈ serum”.

Q: And the concentration at 4 h ([1]; male, adipose, male, high dose, read-out: PCB or metabolite detected level, Adipose)?
A: The concentration at 4 h was 8 ng/g.

Q: And the concentration at 4 h ([1]; male, adipose, male, low dose, read-out: PCB or metabolite detected level, Adipose)?
A: Its concentration at 4 h is 6 ng/g.

Q: And the concentration at 4 h ([1]; male, brain, male, high dose, read-out: PCB or metabolite detected level, Brain)?
A: The concentration at 4 h was 2 ng/g.

Q: What about the concentration at 4 h ([1]; male, brain, male, low dose, read-out: PCB or metabolite detected level, Brain) of the same compound?
A: Its concentration at 4 h is 1 ng/g.

Q: What about the concentration at 4 h ([1]; male, cecum, male, high dose, read-out: PCB or metabolite detected level, Cecum) of the same compound?
A: The concentration at 4 h was 2 ng/g.

Q: What about the concentration at 4 h ([1]; male, cecum, male, low dose, read-out: PCB or metabolite detected level, Cecum) of the same compound?
A: The concentration at 4 h was 1 ng/g.

Q: And the concentration at 4 h ([1]; male, intestinal content, male, high dose, read-out: PCB or metabolite detected level, Intestinal content)?
A: Its concentration at 4 h is 1 ng/g.

Q: And the concentration at 4 h ([1]; male, intestinal content, male, low dose, read-out: PCB or metabolite detected level, Intestinal content)?
A: Its concentration at 4 h is 1 ng/g.

Q: What about the concentration at 4 h ([1]; male, liver, male, high dose, read-out: PCB or metabolite detected level, Liver) of the same compound?
A: Its concentration at 4 h is 10 ng/g.

Q: And the concentration at 4 h ([1]; male, liver, male, low dose, read-out: PCB or metabolite detected level, Liver)?
A: The concentration at 4 h was 9 ng/g.

Q: What about the concentration at 4 h ([1]; male, lung, male, high dose, read-out: PCB or metabolite detected level, Lung) of the same compound?
A: The concentration at 4 h was 46 ng/g.

Q: What about the concentration at 4 h ([1]; male, lung, male, low dose, read-out: PCB or metabolite detected level, Lung) of the same compound?
A: The concentration at 4 h was 50 ng/g.

Q: And the concentration at 4 h ([1]; male, serum, male, high dose, read-out: PCB or metabolite detected level, Serum)?
A: Its concentration at 4 h is 2 ng/g.

Q: What about the concentration at 4 h ([1]; male, serum, male, low dose, read-out: PCB or metabolite detected level, Serum) of the same compound?
A: Its concentration at 4 h is 2 ng/g.

Q: And the “number of PCB52 metabolites identified by LC-HRMS” value (shortened to “number”) ([2]; liver)?
A: The value was 7 metabolites.

Q: And the “number” value ([2]; lung)?
A: The value was 9 metabolites.

Q: And the “number” value ([2]; serum)?
A: Its value is 9 metabolites.
